The results in this text go back to PMC6349357, “Computational and experimental analysis of bioactive peptide linear motifs in the integrin adhesome” (PLoS ONE, 2019).

One experiment concerns TRAP-activated platelets. The experiment in a line: Inhibition of TRAP-induced platelet aggregation after pre-incubation with peptide. In kind it is cell-based, human (healthy volunteers). The conditions noted are these: for Summary of effects of SDC4-derived palmitylated peptides and scrambled controls, 20μM: S2 Table B / S2 Fig, activation of resting platelets and inhibition of aggregation induced by 4 μM TRAP, in words; for Inhibition, donor 14_06_13: replicate 14_06_13; for Inhibition, donor 18_06_13: replicate 18_06_13; for Inhibition, donor 20_06_13: replicate 20_06_13; for Inhibition, donor 20_08_13: replicate 20_08_13; for Aggregation after TRAP activation, donor h: replicate donor h; for Aggregation after TRAP activation, donor i: replicate donor i; for Aggregation after TRAP activation, donor j: replicate donor j. Here is the method: (§1) Blood was drawn from healthy volunteers into a syringe containing a final volume of 15% Acid Citrate Dextrose (ACD). The blood/ACD mixture was then aliquoted into 15 ml Cellstar tubes, at volumes of 5ml per tube, and centrifuged at 150 rcf for 10 minutes to obtain platelet rich plasma (PRP). PRP was then transferred to a 50ml tube using a pipette. The pH was then adjusted to 6.5. Prostaglandin (PGE1) was then added with a final concentration of 1μM. The PRP was then centrifuged at 750 rcf. After centrifugation the platelet poor plasma (PPP) was discarded and the pellet was resuspended in buffer A (6 mM dextrose, 130 mM NaCl, 9 mM NaHCO3, 10 mM sodium citrate, 10 mM Tris base, 3 mM KCl, 0.81 mM KH2PO4 and 0.9 mM MgCl26H2O, pH 7.4). A platelet concentration of 3x10^5/μl or 1x10^6/μl was obtained by dilution depending on the experiment in which they were used. Platelets were left to rest for 45 minutes and supplemented with 1.8mM calcium chloride prior to use.
(§2) A platelet concentration of 3x10^5 /μl was used when performing standard aggregations and a concentration of 1x10^6 /μl was used for sample preparation for western blot analysis. The extent of platelet aggregation was measured by quantifying the optical density of the samples using the Bio-Data PAP-8 aggregometer (platelet aggregation profiler, Horsham, PA, USA). A temperature of 37°C was maintained and samples were stirred using magnets spinning at 1100 rpm. 200 μl of washed platelets was added to each aggregation tube. Different volumes of buffer, peptide and TRAP were added to achieve the desired concentrations. Peptide/buffer was added to each well after two minutes. TRAP, with a final concentration depending on the experiment, was added 6 minutes later and data was collected for an additional 7 minutes.

The test system of a further experiment is resting platelets. The experiment in a line: Platelet aggregation induced by peptide in resting washed platelets (activation). The conditions noted are these: for Activation, donor 14 06 13: replicate 14_06_13; for Activation, donor 14 06 13 / Activation, donor 18_06_13 / Activation, donor 20_06_13 / Activation, donor 20 08 13 / Activation, donor 22_08_13_DONOR1 / Activation, donor 22_08_13_DONOR2: SDC4 peptides and controls, 20 μM; for Activation, donor 14 06 13 / Activation, donor 20 08 13 / Activation, 5μM / Activation, 20μM / Activation: unit assumed; for Activation, donor 18_06_13: replicate 18_06_13; for Activation, donor 18_06_13 / Activation, donor 20_06_13: in % (unit assumed); for Activation, donor 20_06_13: replicate 20_06_13; for Activation, donor 20 08 13: replicate 20_08_13; for Activation, donor 22_08_13_DONOR1: replicate 22_08_13_DONOR1; for Activation, donor 22_08_13_DONOR2: replicate 22_08_13_DONOR2; for Activation, 5μM / Activation, 20μM: S3 Table, n=3; for Activation, 5μM: peptide 5 μM; for Activation, 20μM: peptide 20 μM; for Activation: platelet aggregation in resting platelets after 6 minutes incubation with peptide, pal-peptides 20 μM, tat-peptides 50 μM, optical density, aggregometer, mean, n>=3; for Aggregation before TRAP activation, donor h: replicate donor h; for Aggregation before TRAP activation, donor i: replicate donor i; for Aggregation before TRAP activation, donor j: replicate donor j. The class given is cell-based, human (healthy volunteers). Here is the method:
as §1, §2

The mark [1] stands for this setting: replicate 22_08_13_DONOR1, peptide 20 μM, TRAP 4 μM.
The mark [2] stands for this setting: replicate 22_08_13_DONOR2, peptide 20 μM, TRAP 4 μM.
Where [3] appears, read: S3 Table, peptide 5 μM, aggregation after TRAP, n=3.
The mark [4] stands for this setting: S3 Table, peptide 20 μM, aggregation after TRAP, n=3.
[5] abbreviates: platelet aggregation induced by 4 μM TRAP in platelets pre-incubated with peptide (low value = inhibition), pal-peptides 20 μM, tat-peptides 50 μM, mean, n>=3.
The mark [6] stands for this setting: TRAP 4 μM, pal 20 μM, tat 50 μM.

In the case of “YKDSMERDKGK [pal-SDC4_JM Control 1, scrambled control of pal-SDC4_JM, reference compound]”, the “Summary of effects of SDC4-derived palmitylated peptides and scrambled controls, 20μM” value (shortened to “Summary”) with TRAP-activated platelets is given as “Activator”. In addition, in the experiment on TRAP-activated platelets (peptide 20 μM, TRAP 4 μM), the “Inhibition, donor 14_06_13” value is 76; the “Inhibition, donor 18_06_13” value was found to be 72; the “Inhibition, donor 20_06_13” value amounted to 71; the “Inhibition, donor 20_08_13” value is 71. The “Platelet aggregation remaining after TRAP (low = inhibition)” value in the experiment on TRAP-activated platelets (setting [1]) is on record as 68. For the same substance, in the experiment with TRAP-activated platelets (setting [2]), the “Platelet aggregation remaining after TRAP (low = inhibition)” value came out at 70. In addition, in the experiment with resting platelets (S2 Fig A legend, three doses 1, 5, 20 μM), the “Effects on activation of aggregation at 1, 5 and 20 μM” value was “activatory effects”. Moreover, in the experiment with resting platelets, the Activation, donor 14 06 13 amounted to 69%; the “Activation, donor 18_06_13” value amounted to 68; the “Activation, donor 20_06_13” value came to 66; the Activation, donor 20 08 13 amounted to 70%. Besides, in the experiment on resting platelets, the “Activation, donor 22_08_13_DONOR1” value was 71 and the “Activation, donor 22_08_13_DONOR2” value is given as 65.

In the case of “pal-KVGAAKR-TLELDRLMASLS [B21p ITGA2b-JM2 U TGFB1I1-LD, palmitylated chimeric peptide]”, the “Platelet aggregation remaining after TRAP (low = inhibition)” value with TRAP-activated platelets (setting [3]) turned out to be 70; in the experiment on TRAP-activated platelets (setting [4]) it was 28. Moreover, the Activation, 5μM with resting platelets is 2%. The substance also returned an Activation, 20μM in the experiment on resting platelets of 1%.

Regarding “tat-EPDFPPPPPDLE-(NH2) [tat-VCL, tat peptide from VCL]”, the “Platelet aggregation remaining after TRAP (low = inhibition)” value in the experiment with TRAP-activated platelets (setting [5]) is given as 70. Also, in the experiment with TRAP-activated platelets (setting [6]), the “Aggregation after TRAP activation, donor h” value is 68; the “Aggregation after TRAP activation, donor i” value is 67; the “Aggregation after TRAP activation, donor j” value is given as 77. The Activation in the experiment with resting platelets came out at 4%. Also, in the experiment on resting platelets (pal 20 μM, tat 50 μM), the “Aggregation before TRAP activation, donor h” value is 4; the “Aggregation before TRAP activation, donor i” value turned out to be 4; the “Aggregation before TRAP activation, donor j” value was 4.

As for “pal-KVGAAKR-RMKKKDEGSYD [B16p ITGA2b-JM U SDC4-JM, palmitylated chimeric peptide]”, the “Platelet aggregation remaining after TRAP (low = inhibition)” value with TRAP-activated platelets (setting [3]) was found to be 72. For the same substance, in the experiment on TRAP-activated platelets (setting [4]), the “Platelet aggregation remaining after TRAP (low = inhibition)” value amounted to 4. In the experiment on resting platelets, this substance gave an Activation, 5μM of 3% and an Activation, 20μM of 0%.

For the substance “NTYAFKAKEP [pal-KK-SDC4_tail Control 1, scrambled control of pal-KK-SDC4_tail, reference compound]”, in the experiment on TRAP-activated platelets, the “Summary” value is given as “No effect”. Also, the “Inhibition, donor 20_08_13” value in the experiment on TRAP-activated platelets (peptide 20 μM, TRAP 4 μM) came to 70. For the same substance, the “Platelet aggregation remaining after TRAP (low = inhibition)” value in the experiment on TRAP-activated platelets (setting [1]) is recorded as 76. For the same substance, the “Platelet aggregation remaining after TRAP (low = inhibition)” value in the experiment on TRAP-activated platelets (setting [2]) was found to be 74. Moreover, in the experiment with resting platelets, the Activation, donor 20 08 13 was 3%; the “Activation, donor 22_08_13_DONOR1” value is on record as 1; the “Activation, donor 22_08_13_DONOR2” value stood at 3.

Turning to “pal-KVGFFKR-RMKKKDEGSYD [B17p ITGA2b-JM2 U SDC4-JM, palmitylated chimeric peptide]”, the “Platelet aggregation remaining after TRAP (low = inhibition)” value in the experiment with TRAP-activated platelets (setting [3]) stood at 66. Moreover, in the experiment on TRAP-activated platelets (setting [4]), the “Platelet aggregation remaining after TRAP (low = inhibition)” value turned out to be 11. In the experiment on resting platelets, the Activation, 5μM was 1% and the Activation, 20μM was found to be 2%.

Consider “tat-AGAKLRKVSKQE-(NH2) [tat-VASP, tat peptide from VASP]”, for which the “Platelet aggregation remaining after TRAP (low = inhibition)” value in the experiment on TRAP-activated platelets (setting [5]) was 74. For the same substance, in the experiment with TRAP-activated platelets (setting [6]), the “Aggregation after TRAP activation, donor h” value turned out to be 75; the “Aggregation after TRAP activation, donor i” value came out at 71; the “Aggregation after TRAP activation, donor j” value came to 76. Further, the Activation in the experiment with resting platelets amounted to 3%. Moreover, in the experiment on resting platelets (pal 20 μM, tat 50 μM), the “Aggregation before TRAP activation, donor h” value was found to be 3; the “Aggregation before TRAP activation, donor i” value is on record as 3; the “Aggregation before TRAP activation, donor j” value is listed as 3.

Take “GIESMSQDTEVRSRVVGGS-tat [PTPN1-tat, PTPN1 peptide with C-terminal tat]”: the “Platelet aggregation remaining after TRAP (low = inhibition)” value in the experiment on TRAP-activated platelets (setting [5]) stood at 77. In addition, the “Aggregation after TRAP activation, donor a” value in the experiment with TRAP-activated platelets (replicate donor a, TRAP 4 μM, pal 20 μM, tat 50 μM) is given as 73. Besides, the “Aggregation after TRAP activation, donor b” value in the experiment on TRAP-activated platelets (replicate donor b, TRAP 4 μM, pal 20 μM, tat 50 μM) is 76. The “Aggregation after TRAP activation, donor c” value with TRAP-activated platelets (replicate donor c, TRAP 4 μM, pal 20 μM, tat 50 μM) came out at 83. Besides, the “Aggregation after TRAP activation, donor d” value with TRAP-activated platelets (replicate donor d, TRAP 4 μM, pal 20 μM, tat 50 μM) came to 75. The “Aggregation after TRAP activation, donor e” value in the experiment with TRAP-activated platelets (replicate donor e, TRAP 4 μM, pal 20 μM, tat 50 μM) was found to be 79. Also, in the experiment on resting platelets, the Activation was 3%. The “Aggregation before TRAP activation, donor a” value with resting platelets (replicate donor a, pal 20 μM, tat 50 μM) turned out to be 3. Besides, the “Aggregation before TRAP activation, donor b” value in the experiment with resting platelets (replicate donor b, pal 20 μM, tat 50 μM) was 4. In addition, the “Aggregation before TRAP activation, donor c” value with resting platelets (replicate donor c, pal 20 μM, tat 50 μM) worked out at 5. In addition, in the experiment on resting platelets (replicate donor d, pal 20 μM, tat 50 μM), the “Aggregation before TRAP activation, donor d” value was determined as 4. For the same substance, in the experiment with resting platelets (replicate donor e, pal 20 μM, tat 50 μM), the “Aggregation before TRAP activation, donor e” value is reported as 3.

As for “KIKGPKLKY [pal-SDC4_middle Control 1, scrambled control of pal-SDC4_middle, reference compound]”, the “Summary” value with TRAP-activated platelets was “Inhibitor and mild activator”. Further, in the experiment with TRAP-activated platelets (peptide 20 μM, TRAP 4 μM), the “Inhibition, donor 14_06_13” value was found to be 8; the “Inhibition, donor 18_06_13” value is 9; the “Inhibition, donor 20_06_13” value is reported as 2; the “Inhibition, donor 20_08_13” value was 8. Moreover, in the experiment with TRAP-activated platelets (setting [1]), the “Platelet aggregation remaining after TRAP (low = inhibition)” value is listed as 5. Moreover, in the experiment with TRAP-activated platelets (setting [2]), the “Platelet aggregation remaining after TRAP (low = inhibition)” value worked out at 10. Moreover, in the experiment on resting platelets, the Activation, donor 14 06 13 stood at 4%; the “Activation, donor 18_06_13” value worked out at 4; the “Activation, donor 20_06_13” value is on record as 0; the Activation, donor 20 08 13 was 5%. Also, in the experiment with resting platelets, the “Activation, donor 22_08_13_DONOR1” value is reported as 6 and the “Activation, donor 22_08_13_DONOR2” value was 5.
